Data on 3 compounds can be found in patent US20090062208A1, “Methods for maintaining blood-brain barrier integrity in hypertensive subjects using a delta-PKC inhibitor” (priority 2007, published 2009).

Experiment [1] concerns middle cerebral arteries. The conditions noted are these: DS rats; Payne and Smeda 2002; cited from earlier work.
For experiment [2], the system named is zonula occludens 1 (ZO-1), and occludin. Nature of the experiment: Immunoblot analysis of blood brain barrier-related proteins. In kind it is in vivo, rat. The conditions noted are these: hypertensive DS rats. Here is the method: (§1) The rats were subcutaneously infused (i.e., treated) with a saline solution, a control TAT peptide (YGRKKRRQRRR, SEQ ID NO:85), or the peptide inhibitor δV1-1 (SFNSYELGSL, SEQ ID NO: 1) attached via an N-terminal disulfide bond to TAT peptide (YGRKKRRQRRR-CC-SFNSYELGSL, SEQ ID NO:89), at a rate of 5.0 μL/hour, using an osmotic minipump. Treatment began at 11 weeks of age and survival rate and neurological deficits were recorded through week 15. Blood pressure was measured bi-weekly and blood-brain barrier disruption was assessed at 13 weeks by measuring Evans Blue dye extravasation. Proteomic analysis of brain samples was carried out to identify differences in the brains of control TAT peptide and δV1-1-treated animals. Blood brain barrier-related proteins were evaluated by immunoblot analysis.

The test system of experiment [3] is blood-brain barrier. Nature of the experiment: Blood-brain barrier disruption by Evans Blue dye extravasation. In kind it is in vivo, rat. The conditions noted are these: hypertensive DS rats, at 13 weeks, n=6, p<0.01. Here is the method: (§2) As detailed in Example 1, Dahl salt-sensitive (DS) rats, which are a model for hypertension in humans, were used to evaluate the efficacy of δPKC inhibitor treatment. The animals were initially maintained on a low-salt (0.3% NaCl) diet then switched to a high-salt (8% NaCl) to induce hypertension. The rats were subcutaneously treated with either a saline solution, a control peptide (TAT, SEQ ID NO:85), or a δPKC peptide inhibitor. Blood pressure was measured bi-weekly and blood-brain barrier (BBB) disruption was assessed at the end of the treatment period. Proteomic analysis of brain samples was carried out to identify differences in the brains of control TAT peptide and δV1-1-treated animals.
as §1, with “Proteomic analysis of brain samples was carried out to identify differences in the brains of control TAT peptide and δV1-1-treated animals.” left out

Experiment [4] deals with transferrin and actin. Description: Proteomic analysis of brain samples. The experiment is classed as in vivo, rat. The conditions noted are these: brain samples taken at 13 weeks of age, continuous administration. As for the experimental part: as §2
as §1, with “Proteomic analysis of brain samples was carried out to identify differences in the brains of control TAT peptide and δV1-1-treated animals.” left out

Experiment [5] concerns Dahl salt-sensitive (DS) rats. Nature of the experiment: Hypertension-induced stroke in Dahl salt-sensitive rats on high-salt diet (blood pressure, stroke incidence). The experiment is classed as in vivo, rat. As to conditions: hypertensive DS rats; for blood pressure: subcutaneous infusion by osmotic minipump, versus control TAT peptide. As for the experimental part:
as §2
Male Dahl salt-sensitive (DS) rats were maintained on a low-salt (0.3% NaCl) diet until 6 weeks of age. The animals were then switched to a high-salt (8% NaCl) diet until 15 weeks of age. The animals were monitored daily for symptoms of systemic hypertension.
as §1

As to bisindolylmaleimide, in experiment [1], the “middle cerebral artery constriction in response to elevated blood pressure” value was “inhibited constriction”.
On to `COc1ccc2c(c[n+](C)c3c4cc5c(cc4ccc23)OCO5)c1OC` [chelerythrine], for which the “middle cerebral artery constriction in response to elevated blood pressure” value in experiment [1] is on record as “inhibited constriction”.
Consider YGRKKRRQRRR-CC-SFNSYELGSL [δV1-1], for which the “hypertension-induced redistribution of tight junction-related proteins ZO-1 and occludin” value in experiment [2] is given as “blocked”. Also, the “Evans Blue extravasation into the brain parenchyma” value in experiment [3] is reported as “reduced”. For the same compound, the “increased levels of transferrin and actin in brain samples” value in experiment [4] is listed as “attenuated”. Moreover, the “incidence of stroke (and stroke-associated symptoms)” value in experiment [5] (relative to the TAT control group, n=24, p<0.01) is “significantly decreased”. The blood pressure result in experiment [5] (listed as δPKC inhibitor) is reported as “similar”; in experiment [5] (listed as δV1-1 peptide), “identical”.
